Test results as given in patent publication US20220117993A1, “Compounds Useful in HIV Therapy” (GlaxoSmithKline Intellectual Property (No. 2) Limited, priority 2018, published 2022).
Like-named read-outs stand apart in the source and are kept apart here.

Legend:
[1] = Rat pharmacokinetics, single intramuscular injection; assay type: in vivo, Male Wistar Han rats; settings: single IM dose 20 mg/kg, suspension 10 mg/mL; EFdA in blood, FIG. 2 and 3
Protocol: The pharmacokinetics of Compounds 6 and 21 after a single intramuscular (IM) injection were evaluated in Male Wistar Han rats. The test compound was suspended in a 2% P407, 2% PEG3350, 3.5% Mannitol formulation at 10 mg/mL concentration. A single dose of 20 mg/kg of test compound was injected (2 mL/kg) IM into the right gastrocnemius muscle (n=3). Blood samples were collected via a lateral tail vein at the following time points: Day 1 [30 min, 1 h, 3 h, 5 h, 7 h], Days 2-5, Days 7, 10, 14, 17, 21, 24, 28, 31, 35, 38, 42, 45, 49, 52, 56, 59, 63, 66 and 70, etc. To evaluate test compound and EFdA concentrations, approximately 150 μL of blood was collected into a NaFL/Na2EDTA tube. Exactly 150 μL of blood was then pipetted into a new tube, mixed with 150 μL of 100 mM ammonium acetate pH4, (some of the prodrugs required mixing with 1.5 μL of FA as stabilizer), vortexed, immediately frozen on dry ice and stored at −80° C. until analysis. […] The supernatants were then analyzed by UPLC/MS-MS (Triple Quad™ 6500+). Pharmacokinetic parameters were evaluated using a non-compartmental model of the non-compartmental analysis tool, Pharsight Phoenix WinNonlin® 6.4 software.

[2] = test system: PSV with methionine 184 to valine (M184V) substitution in the reverse transcriptase gene; assay: microbe, parasite or virus in culture; assay type: cell-based, HIV; settings: read-out: M184V IC50
[3] = test system: wild-type NL4-3 replication defective pseudovirus (PSV); assay: microbe, parasite or virus in culture; assay type: cell-based; settings: NL43, 72 h, U373 cells expressing human CD4 and CXCR4 or CCR5, luciferase signal after 3 days, mean IC50, read-out: WT IC50
[4] = Human immunodeficiency virus 1, 72 h

| SMILES | sustained exposure to EFdA out to [1] | IC50 [2, 4] | IC50 [3] | IC50 ([2]; U373 cells expressing human CD4 and CXCR4 or CCR5, luciferase signal after 3 days, mean IC50) |
| --- | --- | --- | --- | --- |
| C#C[C@]1(CO)O[C@@H](n2cnc3c(N)nc(F)nc32)C[C@@H]1OC(=O)CC(C)(C)c1c(C)cc(C)cc1OC(C)=O [Example 21, (2R,3S,5R)-5-(6-amino-2-fluoro-9H-purin-9-yl)-2-ethynyl-2-(hydroxymethyl)tetrahydrofuran-3-yl 3-(2-acetoxy-4,6-dimethylphenyl)-3-methylbutanoate] | does not afford a sustained release profile |  |  |  |
| C#C[C@]1(CO)O[C@@H](n2cnc3c(N)nc(F)nc32)C[C@@H]1OC(=O)C(C)(C)C [Example 13, (2R,3S,5R)-5-(6-amino-2-fluoro-9H-purin-9-yl)-2-ethynyl-2-(hydroxymethyl)tetrahydrofuran-3-yl pivalate] |  | 1.28 µM | 0.263 µM |  |
| C#C[C@]1(CO)O[C@@H](n2cnc3c(N)nc(F)nc32)C[C@@H]1OC(=O)CCCCCCCCC [Example 3, (2R,3S,5R)-5-(6-amino-2-fluoro-9H-purin-9-yl)-2-ethynyl-2-(hydroxymethyl)tetrahydrofuran-3-yl decanoate] |  | 0.007 µM | 0.0013 µM |  |
| C#C[C@]1(CO)O[C@@H](n2cnc3c(N)nc(F)nc32)C[C@@H]1OC(=O)C(CCCCCC)CCCCCCCC (stereo partly drawn) [Example 15, (2R,3S,5R)-5-(6-amino-2-fluoro-9H-purin-9-yl)-2-ethynyl-2-(hydroxymethyl)tetrahydrofuran-3-yl 2-hexyldecanoate] |  | 3.12 µM | 0.555 µM |  |
| C#C[C@]1(CO)O[C@@H](n2cnc3c(N)nc(F)nc32)C[C@@H]1OC(=O)CCC [Example 20, (2R,3S,5R)-5-(6-amino-2-fluoro-9H-purin-9-yl)-2-ethynyl-2-(hydroxymethyl)tetrahydrofuran-3-yl butyrate] |  | 0.123 µM | 0.0277 µM |  |
| C#C[C@]1(COC(=O)OCCCCCC)O[C@@H](n2cnc3c(N)nc(F)nc32)C[C@@H]1OC(=O)CCCCCCCCCCCCC [Example 23, (2R,3S,5R)-5-(6-amino-2-fluoro-9H-purin-9-yl)-2-ethynyl-2-((((hexyloxy)carbonyl)oxy)methyl)tetrahydrofuran-3-yl tetradecanoate] |  | 1.13 µM | 1.09 µM |  |
| C#C[C@]1(CO)O[C@@H](n2cnc3c(NC(=O)CCCCCCCCCCCCC)nc(F)nc32)C[C@@H]1OC(C)=O [Example 14, (2R,3S,5R)-2-ethynyl-5-(2-fluoro-6-tetradecanamido-9H-purin-9-yl)-2-(hydroxymethyl)tetrahydrofuran-3-yl acetate] |  | 0.068 µM | 0.0114 µM |  |
| C#C[C@]1(CO)O[C@@H](n2cnc3c(N)nc(F)nc32)C[C@@H]1O [EFdA, 4′-ethynyl-2-fluoro-2′-deoxyadenosine, reference compound] |  |  | 0.0065 µM | 0.0351 µM |
